Assay results from ChEMBL document CHEMBL2074324, “Multidrug resistance P-glycoprotein hampers the access of cortisol but not of corticosterone to mouse and human brain” (Endocrinology, 2001).

Biological target: ATP-dependent translocase ABCB1 (Mus musculus, UniProt P21447)
Assay: TP_TRANSPORTER: increase in brain concentration in mdr1a(-/-) mouse
Format: functional, organism-based
Conditions: in vivo

Chain of ATP-dependent translocase ABCB1 (P21447 whole entry): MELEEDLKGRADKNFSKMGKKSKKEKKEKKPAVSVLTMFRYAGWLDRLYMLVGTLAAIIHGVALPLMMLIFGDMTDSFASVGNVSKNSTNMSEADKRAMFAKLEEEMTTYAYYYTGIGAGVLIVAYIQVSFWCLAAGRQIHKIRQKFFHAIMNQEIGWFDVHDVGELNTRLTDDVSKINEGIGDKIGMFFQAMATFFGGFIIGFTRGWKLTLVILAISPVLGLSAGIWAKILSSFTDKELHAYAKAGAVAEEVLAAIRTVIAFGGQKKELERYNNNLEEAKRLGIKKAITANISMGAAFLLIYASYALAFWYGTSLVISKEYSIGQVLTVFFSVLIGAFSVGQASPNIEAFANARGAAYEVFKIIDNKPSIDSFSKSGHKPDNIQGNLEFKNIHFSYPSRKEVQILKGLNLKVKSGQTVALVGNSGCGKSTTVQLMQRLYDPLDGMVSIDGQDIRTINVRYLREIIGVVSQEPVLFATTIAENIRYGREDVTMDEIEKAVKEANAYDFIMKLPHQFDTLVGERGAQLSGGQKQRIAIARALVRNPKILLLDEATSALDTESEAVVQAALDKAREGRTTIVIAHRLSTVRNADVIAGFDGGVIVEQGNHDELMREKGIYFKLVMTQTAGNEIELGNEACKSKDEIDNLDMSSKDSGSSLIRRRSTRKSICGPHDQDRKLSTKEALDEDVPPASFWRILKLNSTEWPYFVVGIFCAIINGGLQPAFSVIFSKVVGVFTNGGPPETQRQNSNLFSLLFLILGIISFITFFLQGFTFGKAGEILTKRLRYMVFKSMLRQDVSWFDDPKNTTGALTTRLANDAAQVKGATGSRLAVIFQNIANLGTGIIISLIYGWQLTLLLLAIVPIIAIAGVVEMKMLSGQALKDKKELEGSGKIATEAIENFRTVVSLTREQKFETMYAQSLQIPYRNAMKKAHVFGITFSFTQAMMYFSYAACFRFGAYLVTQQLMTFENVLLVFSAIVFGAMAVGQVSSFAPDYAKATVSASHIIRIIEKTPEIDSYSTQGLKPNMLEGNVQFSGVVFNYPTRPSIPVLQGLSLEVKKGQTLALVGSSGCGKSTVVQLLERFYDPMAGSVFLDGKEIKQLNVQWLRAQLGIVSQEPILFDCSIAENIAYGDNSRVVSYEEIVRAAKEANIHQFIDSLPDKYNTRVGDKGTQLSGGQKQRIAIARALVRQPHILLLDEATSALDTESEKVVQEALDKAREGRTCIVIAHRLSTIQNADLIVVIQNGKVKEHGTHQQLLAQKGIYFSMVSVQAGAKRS

Q: Which Activity does the source give for `C[C@]12CCC(=O)C=C1CC[C@@H]1[C@@H]2[C@@H](O)C[C@@]2(C)[C@H]1CC[C@]2(O)C(=O)CO` [HYDROCORTISONE] here?
A: Its Activity is “substrate [+]”.
